What was measured:
HepG2 = assay: Antiproliferative activity against human HepG2 cells assessed as inhibition of cell proliferation incubated for 48 hrs by MTT assay; assay type: functional, cell-based; details: HepG2, 48 h
HeLa = assay: Antiproliferative activity against human HeLa cells assessed as inhibition of cell proliferation incubated for 48 hrs by MTT assay; assay type: functional, cell-based
MCF7 [1] = assay: Antiproliferative activity against human MCF7 cells assessed as inhibition of cell proliferation incubated for 48 hrs by MTT assay; assay type: functional, cell-based; details: MCF7, 48 h
A549 = assay: Antiproliferative activity against human A549 cells assessed as inhibition of cell proliferation incubated for 48 hrs by MTT assay; assay type: functional, cell-based; details: A549, 48 h
[2] = target: Epidermal growth factor receptor (Homo sapiens, UniProt P00533); assay: Inhibition of EGFR (unknown origin) incubated for 30 mins by enzyme immunoassay
Sequence of Epidermal growth factor receptor (P00533 whole entry): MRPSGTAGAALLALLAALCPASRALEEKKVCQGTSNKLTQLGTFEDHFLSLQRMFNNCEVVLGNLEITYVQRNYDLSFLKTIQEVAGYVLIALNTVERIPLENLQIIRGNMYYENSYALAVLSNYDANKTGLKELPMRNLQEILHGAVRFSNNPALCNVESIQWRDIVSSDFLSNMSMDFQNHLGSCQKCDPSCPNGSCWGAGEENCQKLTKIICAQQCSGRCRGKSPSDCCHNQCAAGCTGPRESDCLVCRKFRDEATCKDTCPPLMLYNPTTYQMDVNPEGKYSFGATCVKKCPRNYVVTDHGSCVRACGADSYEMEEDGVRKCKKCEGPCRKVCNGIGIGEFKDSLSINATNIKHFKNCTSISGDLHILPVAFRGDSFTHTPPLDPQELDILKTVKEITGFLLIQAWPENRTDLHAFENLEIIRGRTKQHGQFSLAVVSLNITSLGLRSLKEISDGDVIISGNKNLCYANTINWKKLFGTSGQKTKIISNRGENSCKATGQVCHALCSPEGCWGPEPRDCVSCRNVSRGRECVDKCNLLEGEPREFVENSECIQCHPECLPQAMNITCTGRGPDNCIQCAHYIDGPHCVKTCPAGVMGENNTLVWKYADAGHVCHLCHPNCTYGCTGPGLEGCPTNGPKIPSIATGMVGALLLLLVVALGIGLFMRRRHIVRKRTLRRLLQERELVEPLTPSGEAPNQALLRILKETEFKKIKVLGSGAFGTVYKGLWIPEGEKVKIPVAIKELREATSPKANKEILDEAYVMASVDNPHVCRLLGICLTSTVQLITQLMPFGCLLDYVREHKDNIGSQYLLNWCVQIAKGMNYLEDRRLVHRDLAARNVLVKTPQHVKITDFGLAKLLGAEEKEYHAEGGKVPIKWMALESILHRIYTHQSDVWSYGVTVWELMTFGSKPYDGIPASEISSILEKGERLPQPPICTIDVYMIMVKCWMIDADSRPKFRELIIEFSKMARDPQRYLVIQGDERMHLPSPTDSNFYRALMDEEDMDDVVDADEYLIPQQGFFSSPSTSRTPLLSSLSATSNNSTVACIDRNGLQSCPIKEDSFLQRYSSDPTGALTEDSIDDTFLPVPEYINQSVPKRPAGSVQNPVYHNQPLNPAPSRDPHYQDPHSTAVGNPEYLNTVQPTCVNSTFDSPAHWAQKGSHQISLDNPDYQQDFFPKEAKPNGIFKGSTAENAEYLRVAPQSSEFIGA

[3] = Inhibition of PDGFR (unknown origin) incubated for 30 mins by enzyme immunoassay; design: species or system Homo sapiens
[4] = target: Vascular endothelial growth factor receptor 2 (Homo sapiens, UniProt P35968); assay: Inhibition of VEGFR2 (unknown origin) incubated for 30 mins by enzyme immunoassay
Sequence of Vascular endothelial growth factor receptor 2 (P35968 whole entry): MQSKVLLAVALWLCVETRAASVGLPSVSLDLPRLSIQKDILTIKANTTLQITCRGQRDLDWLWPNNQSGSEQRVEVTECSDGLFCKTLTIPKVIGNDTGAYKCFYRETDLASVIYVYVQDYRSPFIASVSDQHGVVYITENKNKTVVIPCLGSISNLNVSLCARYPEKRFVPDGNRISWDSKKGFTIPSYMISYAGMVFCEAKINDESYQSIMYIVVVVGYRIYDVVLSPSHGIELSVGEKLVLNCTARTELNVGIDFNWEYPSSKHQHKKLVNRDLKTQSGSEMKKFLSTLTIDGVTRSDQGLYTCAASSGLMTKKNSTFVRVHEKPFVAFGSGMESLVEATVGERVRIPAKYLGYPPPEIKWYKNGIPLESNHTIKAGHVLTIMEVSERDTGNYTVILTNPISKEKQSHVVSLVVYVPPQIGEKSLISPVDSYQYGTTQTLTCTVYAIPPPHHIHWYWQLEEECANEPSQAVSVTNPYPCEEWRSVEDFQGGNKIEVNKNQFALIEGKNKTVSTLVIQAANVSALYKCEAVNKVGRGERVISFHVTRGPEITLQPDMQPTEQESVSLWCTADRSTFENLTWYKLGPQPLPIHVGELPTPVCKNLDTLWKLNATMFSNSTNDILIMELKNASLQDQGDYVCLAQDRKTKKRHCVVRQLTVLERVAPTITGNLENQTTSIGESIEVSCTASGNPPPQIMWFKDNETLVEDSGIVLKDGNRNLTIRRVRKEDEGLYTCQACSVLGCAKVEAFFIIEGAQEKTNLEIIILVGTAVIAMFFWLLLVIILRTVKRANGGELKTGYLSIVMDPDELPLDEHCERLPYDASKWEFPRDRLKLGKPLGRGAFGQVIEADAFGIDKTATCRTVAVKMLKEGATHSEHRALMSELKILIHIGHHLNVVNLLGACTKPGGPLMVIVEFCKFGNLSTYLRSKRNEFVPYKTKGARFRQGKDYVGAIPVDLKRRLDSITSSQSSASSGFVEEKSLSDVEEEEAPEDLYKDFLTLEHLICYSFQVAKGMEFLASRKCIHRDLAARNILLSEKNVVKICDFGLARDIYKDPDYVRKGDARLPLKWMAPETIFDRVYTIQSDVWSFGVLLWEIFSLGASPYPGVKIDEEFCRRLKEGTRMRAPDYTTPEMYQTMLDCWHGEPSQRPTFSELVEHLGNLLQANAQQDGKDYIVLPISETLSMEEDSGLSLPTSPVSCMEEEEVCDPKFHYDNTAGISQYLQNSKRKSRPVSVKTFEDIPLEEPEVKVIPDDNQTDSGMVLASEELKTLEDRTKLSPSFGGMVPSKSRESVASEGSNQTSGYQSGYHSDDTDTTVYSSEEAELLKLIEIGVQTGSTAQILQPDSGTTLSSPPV

[5] = target: Fibroblast growth factor receptor 1 (Homo sapiens, UniProt P11362); assay: Inhibition of bFGFR (unknown origin) incubated for 30 mins by enzyme immunoassay
Sequence of Fibroblast growth factor receptor 1 (P11362 whole entry): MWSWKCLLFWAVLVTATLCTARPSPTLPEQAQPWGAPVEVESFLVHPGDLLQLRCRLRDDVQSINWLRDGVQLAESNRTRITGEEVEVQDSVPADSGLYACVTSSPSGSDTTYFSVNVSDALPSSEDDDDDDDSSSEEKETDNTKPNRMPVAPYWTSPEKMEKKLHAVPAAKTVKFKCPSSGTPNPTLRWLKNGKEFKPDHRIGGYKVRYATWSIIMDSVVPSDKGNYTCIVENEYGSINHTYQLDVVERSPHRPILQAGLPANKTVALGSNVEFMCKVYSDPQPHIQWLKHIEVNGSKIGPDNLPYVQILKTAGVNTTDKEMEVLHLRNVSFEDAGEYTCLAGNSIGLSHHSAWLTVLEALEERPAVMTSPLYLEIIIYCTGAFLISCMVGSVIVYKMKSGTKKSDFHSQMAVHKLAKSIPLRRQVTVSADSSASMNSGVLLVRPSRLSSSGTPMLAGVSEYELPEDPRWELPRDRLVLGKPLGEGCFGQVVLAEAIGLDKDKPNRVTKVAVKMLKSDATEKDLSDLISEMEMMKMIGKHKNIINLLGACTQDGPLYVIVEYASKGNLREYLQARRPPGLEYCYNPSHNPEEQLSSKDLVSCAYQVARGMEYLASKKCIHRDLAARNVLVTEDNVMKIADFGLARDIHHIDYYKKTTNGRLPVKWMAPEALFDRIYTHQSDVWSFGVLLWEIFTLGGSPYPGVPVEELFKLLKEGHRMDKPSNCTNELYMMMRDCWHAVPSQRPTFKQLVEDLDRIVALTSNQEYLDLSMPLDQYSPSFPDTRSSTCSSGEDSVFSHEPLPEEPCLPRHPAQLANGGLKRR

MCF7 [6] = assay: Induction of apoptosis in human MCF7 cells incubated for 24 hrs by Annexin V-FITC/PI double staining based flow cytometry analysis; assay type: functional, cell-based
[7] = Cytotoxicity in HEK293T cells assessed as reduction in cell viability incubated for 48 hrs by MTT assay; assay type: cell-based, HEK-293T; details: human

| Structure (SMILES) | IC50 (HepG2) [µM] | IC50 (HeLa) [µM] | IC50 (MCF7 [1]) [µM] | IC50 (A549) [µM] | IC50 [2] [µM] | IC50 [3] [µM] | IC50 [4] [µM] | IC50 [5] [µM] | Activity (MCF7 [6]) | CC50 at 48 h [7] [µM] |
| --- | --- | --- | --- | --- | --- | --- | --- | --- | --- | --- |
| COc1ccc(-n2cc(NC(=O)c3ccc(NS(=O)(=O)c4ccc(Cl)cc4)cc3)cn2)cc1 | 19.1 | 25.2 | 15.6 | 61 | 16.2 | 26.5 | 7.16 | 26.5 | – | – |
| COc1cc2/c(=N/c3ccc(Br)cc3F)nc[nH]c2cc1OCC1CCN(C)CC1 [VANDETANIB] | 2.46 | 6.57 | 1.4 | 18.2 | – | 1.33 | – | – | Dose-dependent effect | – |
| Cc1ccc(-n2cc(NC(=O)c3ccc(NS(=O)(=O)c4ccccc4)cc3)cn2)cc1 | 18.1 | 27.9 | 10.9 | 54.7 | 18.3 | 26 | 6.85 | 28.1 | – | 107 |
| COc1cccc(-n2cc(NC(=O)c3ccc(NS(=O)(=O)c4ccccc4)cc3)cn2)c1 | 64.2 | 66.2 | 28.4 | > 100 | 24.1 | 39.5 | 16.2 | 47.5 | – | – |
| COc1cc2c(Nc3ccc(Br)cc3F)ncnc2cc1OCC1CCN(C)CC1 [VANDETANIB] | – | – | – | – | – | – | – | – | – | 172 |

From ChEMBL document CHEMBL4385653, “Design, synthesis, biological evaluation of benzoyl amide derivatives containing nitrogen heterocyclic ring as potential VEGFR-2 inhibitors” (Bioorg Med Chem, 2019)
